Assays:
healthy subjects [1] = experiment: Phase 1 study: Five Dimension Altered States of Consciousness questionnaire (5D-ASC); assay type: in vivo, human; settings: Post-Treatment Day 0; Psilocybin 10 mg
Excerpt: In some embodiments, the Five Dimension Altered States of Consciousness questionnaire (5D-ASC) is utilized to evaluate the safety and/or efficacy of psilocybin. […] The 5 dimensions include oceanic boundlessness, anxious ego dissolution, visionary restructuralization, auditory alterations and reduction of vigilance.

healthy subjects [2] = experiment: Phase 1 study in healthy subjects: adverse events and acute effects; assay type: in vivo, human
Experimental: A Phase 1 randomized, double-blind, placebo-controlled study to evaluate the effect of psilocybin on cognitive and emotional processing as compared to placebo in healthy volunteers was conducted. The study investigated the short-term (Day 7) and long-term (Day 28) effects of moderate (10 mg) and high doses (25 mg) of psilocybin on key domains of cognition, such as episodic memory, attention, working and spatial memory, social cognition and elements of executive function, including cognitive flexibility.
90 healthy subjects were studied. Approximately 50% of the subjects were psilocybin-naïve. For subjects with prior psilocybin experience, the last exposure was at least 1 year prior to the signing of the Informed Consent Form (ICF). Approximately 50% of the subjects were female. Subjects were stratified by sex and age (18-35 years old; >35 years old).
Each subject was assigned 1 treatment bottle containing 5 capsules packaged in a double-blind fashion, depending on the randomized treatment arm, the bottle contained one of the following: • a. Psilocybin 10 mg: 2×5-mg oral psilocybin capsules plus 3×placebo capsules • b. Psilocybin 25 mg: 5×5-mg oral psilocybin capsules • c. Placebo: 5×placebo capsules
Each 5-mg oral psilocybin capsule comprised 5 mg crystalline psilocybin in the form of Polymorph A, 12.5 mg of SMCC 50, 79.5 mg of SMCC 90, 1 mg sodium starch glycolate, 1 mg colloidal silicon dioxide, and 1 mg sodium stearyl fumarate
Adverse events: Throughout the course of the study, all AEs were monitored and recorded. Each AE was classified according to the following criteria: • i. […] Moderate: The AE produces some impairment of functioning, but is not hazardous to the subject's health. • iii. Severe: The AE produces significant impairment of functioning or incapacitation and is a definite hazard to the subject's health.
Selected Adverse Events of included: • (a) Euphoric mood • (b) Dissociative disorder • (c) Hallucination • (d) Psychotic disorder • (e) Cognitive disorder • (f) Disturbance in attention • (g) Altered mood • (h) Impairment of psychomotor skills • (i) Inappropriate affect • (j) Overdose • (k) Intentional product misuse • (l) Illusion
For example, drug-induced hepatitis that resolved without evidence of hepatic failure would not be considered life threatening even though drug-induced hepatitis can be fatal. • (c) Inpatient hospitalization or prolongation of existing hospitalization. • (d) Persistent or significant disability/incapacity. • (e) Congenital anomaly/birth defect in the offspring of a subject who received psilocybin. • (f) Other: Important medical events that may not result in death, be life-threatening, or require hospitalization, may be considered an SAE when, based upon appropriate medical judgment, they may jeopardize the subject and may require medical or surgical intervention to prevent one of the outcomes listed in this definition. […] Visits:
Visit 3 (V3): Drug Administration (Day 0): The subject was asked to eat a light breakfast at least two hours prior to coming to the clinic for study drug administration. On Day 0 (V3), the subject underwent the SSTS, had vital signs obtained, medications reviewed, AEs recorded and eligibility reviewed prior to being randomized to study drug. The study drug was administered to up to six subjects simultaneously in individual beds separated by a curtain. The subject was invited to put on eyeshades and headphones, lie down and listen to calming music for the rest of the session (six hours). The subject was supported 1:1 with a chaperone and supervised by the study psychiatrist and lead therapist.
The effects of psilocybin usually started about 20 to 30 min after administration, becoming most intense in the first 90 to 120 min and gradually subsiding in about 5 to 6 hours. […]

SMILES: CN(C)CCc1c[nH]c2cccc(OP(=O)(O)O)c12 [Psilocybin, psilocybin]
- 5D-ASC Complex imagery, LS mean (healthy subjects [1]): 53.0
- Illusion, worst severity Moderate: Events (healthy subjects [2]; 10 mg): 16
- Serious adverse events or adverse events that led to withdrawal (healthy subjects [2]; 10 mg and 25 mg, 12-week study): no serious adverse events
- Selected TEAE (any), subjects N (%) (healthy subjects [2]; Psilocybin 10 mg (N = 30)): 27 (90.0) N (%)
- Selected TEAE: Affect lability, Events (healthy subjects [2]; Psilocybin 10 mg (N = 30)): 5
- Selected TEAE: Affect lability, subjects N (%) (healthy subjects [2]; Psilocybin 10 mg (N = 30)): 5 (16.7) N (%)
- Selected TEAE: Change in sustained attention, Events (healthy subjects [2]; Psilocybin 10 mg (N = 30)): 2
- Selected TEAE: Change in sustained attention, subjects N (%) (healthy subjects [2]; Psilocybin 10 mg (N = 30)): 2 (6.7) N (%)
- Selected TEAE: Depressed mood, Events (healthy subjects [2]; Psilocybin 10 mg (N = 30)): 1
- Selected TEAE: Depressed mood, subjects N (%) (healthy subjects [2]; Psilocybin 10 mg (N = 30)): 1 (3.3) N (%)
- Selected TEAE: Dissociative identity disorder, Events (healthy subjects [2]; Psilocybin 10 mg (N = 30)): 2
- Selected TEAE: Dissociative identity disorder, subjects N (%) (healthy subjects [2]; Psilocybin 10 mg (N = 30)): 1 (3.3) N (%)
- Selected TEAE: Euphoric mood, Events (healthy subjects [2]; Psilocybin 10 mg (N = 30)): 7
- Selected TEAE: Euphoric mood, subjects N (%) (healthy subjects [2]; Psilocybin 10 mg (N = 30)): 7 (23.3) N (%)
- Selected TEAE: Hallucination, Events (healthy subjects [2]; Psilocybin 10 mg (N = 30)): 3
- Selected TEAE: Hallucination, auditory, Events (healthy subjects [2]; Psilocybin 10 mg (N = 30)): 4
- Selected TEAE: Hallucination, auditory, subjects N (%) (healthy subjects [2]; Psilocybin 10 mg (N = 30)): 4 (13.3) N (%)
- Selected TEAE: Hallucination, gustatory, Events (healthy subjects [2]; Psilocybin 10 mg (N = 30)): 1
- Selected TEAE: Hallucination, gustatory, subjects N (%) (healthy subjects [2]; Psilocybin 10 mg (N = 30)): 1 (3.3) N (%)
- Selected TEAE: Hallucination, olfactory, Events (healthy subjects [2]; Psilocybin 10 mg (N = 30)): 1
- Selected TEAE: Hallucination, olfactory, subjects N (%) (healthy subjects [2]; Psilocybin 10 mg (N = 30)): 1 (3.3) N (%)
- Selected TEAE: Hallucination, subjects N (%) (healthy subjects [2]; Psilocybin 10 mg (N = 30)): 3 (10.0) N (%)
- Selected TEAE: Hallucination, tactile, Events (healthy subjects [2]; Psilocybin 10 mg (N = 30)): 2
- Selected TEAE: Hallucination, tactile, subjects N (%) (healthy subjects [2]; Psilocybin 10 mg (N = 30)): 2 (6.7) N (%)
- Selected TEAE: Hallucination, visual, Events (healthy subjects [2]; Psilocybin 10 mg (N = 30)): 20
- Selected TEAE: Hallucination, visual, subjects N (%) (healthy subjects [2]; Psilocybin 10 mg (N = 30)): 18 (60.0) N (%)
- Selected TEAE: Illusion, Events (healthy subjects [2]; Psilocybin 10 mg (N = 30)): 25
- Selected TEAE: Illusion, subjects N (%) (healthy subjects [2]; Psilocybin 10 mg (N = 30)): 19 (63.3) N (%)
- Selected TEAE: Memory impairment, Events (healthy subjects [2]; Psilocybin 10 mg (N = 30)): 1
- Selected TEAE: Memory impairment, subjects N (%) (healthy subjects [2]; Psilocybin 10 mg (N = 30)): 1 (3.3) N (%)
- Selected TEAE: Mood altered, Events (healthy subjects [2]; Psilocybin 10 mg (N = 30)): 23
- Selected TEAE: Mood altered, subjects N (%) (healthy subjects [2]; Psilocybin 10 mg (N = 30)): 13 (43.3) N (%)
- Selected TEAE: Nervous system disorders (SOC), Events (healthy subjects [2]; Psilocybin 10 mg (N = 30)): 2
- Selected TEAE: Nervous system disorders (SOC), subjects N (%) (healthy subjects [2]; Psilocybin 10 mg (N = 30)): 2 (6.7) N (%)
- Selected TEAE: Psychiatric disorders (SOC), Events (healthy subjects [2]; Psilocybin 10 mg (N = 30)): 104
- Selected TEAE: Psychiatric disorders (SOC), subjects N (%) (healthy subjects [2]; Psilocybin 10 mg (N = 30)): 27 (90.0) N (%)
- Selected TEAE: Psychomotor skills impaired, Events (healthy subjects [2]; Psilocybin 10 mg (N = 30)): 1
- Selected TEAE: Psychomotor skills impaired, subjects N (%) (healthy subjects [2]; Psilocybin 10 mg (N = 30)): 1(3.3) N (%)
- Selected TEAE: Somatic hallucination, Events (healthy subjects [2]; Psilocybin 10 mg (N = 30)): 8
- Selected TEAE: Somatic hallucination, subjects N (%) (healthy subjects [2]; Psilocybin 10 mg (N = 30)): 8 (26.7) N (%)
- Selected TEAE: Substance-induced psychotic disorder, Events (healthy subjects [2]; Psilocybin 10 mg (N = 30)): 0
- Selected TEAE: Substance-induced psychotic disorder, subjects N (%) (healthy subjects [2]; Psilocybin 10 mg (N = 30)): 0 N (%)
- Selected TEAE (any), subjects N (%) (healthy subjects [2]; Psilocybin 25 mg (N = 30)): 27 (90.0) N (%)
- Selected TEAE: Affect lability, Events (healthy subjects [2]; Psilocybin 25 mg (N = 30)): 3
- Selected TEAE: Affect lability, subjects N (%) (healthy subjects [2]; Psilocybin 25 mg (N = 30)): 3 (10.0) N (%)
- Selected TEAE: Change in sustained attention, Events (healthy subjects [2]; Psilocybin 25 mg (N = 30)): 0
- Selected TEAE: Change in sustained attention, subjects N (%) (healthy subjects [2]; Psilocybin 25 mg (N = 30)): 0 N (%)
- Selected TEAE: Depressed mood, Events (healthy subjects [2]; Psilocybin 25 mg (N = 30)): 2
- Selected TEAE: Depressed mood, subjects N (%) (healthy subjects [2]; Psilocybin 25 mg (N = 30)): 2 (6.7) N (%)
- Selected TEAE: Dissociative identity disorder, Events (healthy subjects [2]; Psilocybin 25 mg (N = 30)): 2
- Selected TEAE: Dissociative identity disorder, subjects N (%) (healthy subjects [2]; Psilocybin 25 mg (N = 30)): 2 (6.7) N (%)
- Selected TEAE: Euphoric mood, Events (healthy subjects [2]; Psilocybin 25 mg (N = 30)): 8
- Selected TEAE: Euphoric mood, subjects N (%) (healthy subjects [2]; Psilocybin 25 mg (N = 30)): 7 (23.3) N (%)
- Selected TEAE: Hallucination, Events (healthy subjects [2]; Psilocybin 25 mg (N = 30)): 2
- Selected TEAE: Hallucination, auditory, Events (healthy subjects [2]; Psilocybin 25 mg (N = 30)): 4
- Selected TEAE: Hallucination, auditory, subjects N (%) (healthy subjects [2]; Psilocybin 25 mg (N = 30)): 4 (13.3) N (%)
- Selected TEAE: Hallucination, gustatory, Events (healthy subjects [2]; Psilocybin 25 mg (N = 30)): 0
- Selected TEAE: Hallucination, gustatory, subjects N (%) (healthy subjects [2]; Psilocybin 25 mg (N = 30)): 0 N (%)
- Selected TEAE: Hallucination, olfactory, Events (healthy subjects [2]; Psilocybin 25 mg (N = 30)): 1
- Selected TEAE: Hallucination, olfactory, subjects N (%) (healthy subjects [2]; Psilocybin 25 mg (N = 30)): 1 (3.3) N (%)
- Selected TEAE: Hallucination, subjects N (%) (healthy subjects [2]; Psilocybin 25 mg (N = 30)): 2 (6.7) N (%)
- Selected TEAE: Hallucination, tactile, Events (healthy subjects [2]; Psilocybin 25 mg (N = 30)): 4
- Selected TEAE: Hallucination, tactile, subjects N (%) (healthy subjects [2]; Psilocybin 25 mg (N = 30)): 4 (13.3) N (%)
- Selected TEAE: Hallucination, visual, Events (healthy subjects [2]; Psilocybin 25 mg (N = 30)): 22
- Selected TEAE: Hallucination, visual, subjects N (%) (healthy subjects [2]; Psilocybin 25 mg (N = 30)): 21 (70.0) N (%)
- Selected TEAE: Illusion, Events (healthy subjects [2]; Psilocybin 25 mg (N = 30)): 26
- Selected TEAE: Illusion, subjects N (%) (healthy subjects [2]; Psilocybin 25 mg (N = 30)): 18 (60.0) N (%)
- Selected TEAE: Memory impairment, Events (healthy subjects [2]; Psilocybin 25 mg (N = 30)): 0
- Selected TEAE: Memory impairment, subjects N (%) (healthy subjects [2]; Psilocybin 25 mg (N = 30)): 0 N (%)
- Selected TEAE: Mood altered, Events (healthy subjects [2]; Psilocybin 25 mg (N = 30)): 25
- Selected TEAE: Mood altered, subjects N (%) (healthy subjects [2]; Psilocybin 25 mg (N = 30)): 15 (50.0) N (%)
- Selected TEAE: Nervous system disorders (SOC), Events (healthy subjects [2]; Psilocybin 25 mg (N = 30)): 0
- Selected TEAE: Nervous system disorders (SOC), subjects N (%) (healthy subjects [2]; Psilocybin 25 mg (N = 30)): 0 N (%)
- Selected TEAE: Psychiatric disorders (SOC), Events (healthy subjects [2]; Psilocybin 25 mg (N = 30)): 106
- Selected TEAE: Psychiatric disorders (SOC), subjects N (%) (healthy subjects [2]; Psilocybin 25 mg (N = 30)): 27 (90.0) N (%)
- Selected TEAE: Psychomotor skills impaired, Events (healthy subjects [2]; Psilocybin 25 mg (N = 30)): 0
- Selected TEAE: Psychomotor skills impaired, subjects N (%) (healthy subjects [2]; Psilocybin 25 mg (N = 30)): 0 N (%)
- Selected TEAE: Somatic hallucination, Events (healthy subjects [2]; Psilocybin 25 mg (N = 30)): 6
- Selected TEAE: Somatic hallucination, subjects N (%) (healthy subjects [2]; Psilocybin 25 mg (N = 30)): 5 (16.7) N (%)
- Selected TEAE: Substance-induced psychotic disorder, Events (healthy subjects [2]; Psilocybin 25 mg (N = 30)): 1
- Selected TEAE: Substance-induced psychotic disorder, subjects N (%) (healthy subjects [2]; Psilocybin 25 mg (N = 30)): 1 (3.3) N (%)
